A compilation of properties of binary mixtures (doi:10.1021/je7001804)

Assay: xn = mol fraction of the nth substance listed
Details: 101 kPa

CC[n+]1ccn(C)c1.O=S(=O)([O-])C(F)(F)F + CCCO
speed of sound [m/s]
Details | 278.15 K | 288.15 K | 298.15 K | 308.15 K | 318.15 K | 328.15 K | 338.15 K
x2 = 0.049 | 1475.1 | 1451.2 | 1428.3 | 1405.9 | – | 1362.5 | 1341.4
x2 = 0.1095 | 1465.8 | 1441.9 | 1419 | – | 1374.5 | – | 1331.7
x2 = 0.1497 | 1459 | 1435.5 | 1412.7 | 1390.3 | 1368.2 | – | 1325.3
x2 = 0.2004 | 1450.3 | 1426.7 | – | – | 1359.3 | 1337.6 | 1316.5
x2 = 0.3 | 1432.3 | 1408.4 | 1385.2 | 1362.3 | 1340 | 1317.9 | 1296.2
x2 = 0.3993 | – | 1388 | 1364.3 | 1341.1 | 1318.4 | 1295.9 | 1273.9
x2 = 0.499 | 1389.2 | 1364.6 | 1340.5 | 1316.9 | 1293.6 | 1270.7 | 1248.1
x2 = 0.6007 | 1363.1 | 1337.9 | 1313.4 | 1289.2 | – | 1241.7 | 1218.3
x2 = 0.6998 | 1335.8 | – | 1284.3 | – | 1234.2 | 1209.5 | 1185
x2 = 0.7996 | 1308.3 | – | 1253.7 | 1227 | 1200.5 | 1174.3 | 1148.2
x2 = 0.8496 | 1296 | 1267.3 | 1239.2 | 1211.4 | 1183.8 | 1156.5 | 1129.3
x2 = 0.8999 | 1286.3 | 1255.9 | 1226.3 | 1197.1 | 1168.1 | 1139.2 | –
x2 = 0.9499 | 1279.8 | 1247.3 | 1215.6 | – | – | – | 1092

CC[n+]1ccn(C)c1.O=S(=O)([O-])C(F)(F)F + O
speed of sound [m/s]
Details | 278.15 K | 288.15 K | 298.15 K | 308.15 K | 318.15 K | 328.15 K | 338.15 K
x1 = 0.0178 | 1510.5 | 1529 | 1541.8 | 1549.8 | – | 1553.1 | 1548.9
x2 = 0.0502 | 1482.9 | 1459.7 | 1437.1 | 1415 | 1393.3 | 1371.8 | –
x2 = 0.1058 | 1484.8 | 1461.7 | 1439.2 | – | 1395.5 | – | 1352.9
x2 = 0.1504 | 1486.6 | – | 1441 | 1418.9 | 1397 | – | 1354.2
x2 = 0.249 | – | 1468.2 | 1445.9 | 1424 | 1402.3 | 1380.8 | 1359.5
x2 = 0.3004 | 1494 | 1471.3 | 1449.1 | 1427.2 | – | – | –
x2 = 0.3524 | – | 1474.8 | 1452.7 | 1430.8 | 1409.2 | – | 1366.2
x2 = 0.3961 | – | 1478.3 | 1456.2 | 1434.4 | 1412.7 | 1391.2 | 1369.7
x2 = 0.4505 | 1505.3 | 1483 | – | 1439.3 | 1417.7 | 1396.2 | 1374.7
x2 = 0.5024 | 1510.7 | – | 1466.7 | – | 1423.4 | 1401.7 | 1380
x2 = 0.5502 | 1516.2 | 1494.3 | 1472.6 | 1451 | 1429.3 | – | –
x2 = 0.6 | – | 1501.1 | 1479.6 | 1458.1 | – | 1414.9 | 1393
x2 = 0.6502 | 1530.5 | 1509.2 | 1488 | 1466.7 | 1445.3 | 1423.6 | 1401.7
x2 = 0.702 | 1539.8 | 1519.2 | 1498.4 | – | 1456.1 | 1434.6 | 1412.9
x2 = 0.7493 | 1549 | 1529.2 | 1509.1 | – | 1467.8 | 1446.5 | 1424.7
x2 = 0.7998 | – | – | 1522.5 | 1503.1 | 1483 | 1462.2 | 1440.7
x2 = 0.8499 | 1569.5 | 1554.1 | 1537.6 | 1520.1 | 1501.5 | 1482 | –
x2 = 0.8996 | – | 1564.9 | 1552.9 | 1539.1 | 1523.7 | 1506.7 | 1488.2
x2 = 0.9498 | – | 1563.7 | 1561.1 | 1555.7 | 1547.7 | 1537.1 | 1524.2

CC[n+]1ccn(C)c1.O=S(=O)([O-])C(F)(F)F + CCO
speed of sound [m/s]
Details | 278.15 K | 288.15 K | 298.15 K | 308.15 K | 318.15 K | 328.15 K
x2 = 0.0508 | 1475.9 | 1452.2 | 1429.4 | 1407 | 1385.2 | 1363.9
x2 = 0.0983 | – | – | 1422.7 | 1400.4 | – | 1357.6
x2 = 0.1483 | 1461.9 | 1438.3 | – | 1393.1 | 1371.1 | 1349.8
x2 = 0.198 | – | 1430.7 | – | – | – | –
x2 = 0.3072 | 1435.9 | – | 1389.3 | 1366.7 | 1344.6 | –
x2 = 0.4068 | 1416.2 | 1392.4 | 1369.2 | 1346.4 | 1323.9 | 1301.8
x2 = 0.4985 | 1394.8 | 1370.6 | 1346.9 | 1323.6 | – | –
x2 = 0.5999 | 1366.8 | – | 1318 | 1294.2 | – | 1247.7
x2 = 0.6991 | – | 1308.5 | 1283.7 | 1259.2 | 1235.1 | 1211.2
x2 = 0.8001 | – | – | 1241.7 | 1215.7 | 1189.9 | 1164.3
x2 = 0.8497 | 1273.5 | 1245.6 | 1218.2 | – | 1164.7 | 1138.4
x2 = 0.9 | 1252.7 | 1223.1 | – | – | 1137.5 | –
x2 = 0.9501 | 1233 | 1201.1 | 1170.1 | 1139.4 | 1109.1 | 1079.2

CC[n+]1ccn(C)c1.O=S(=O)([O-])C(F)(F)F + CO
speed of sound [m/s]
Details | 278.15 K | 288.15 K | 298.15 K | 308.15 K | 318.15 K
x2 = 0.0511 | 1477.5 | 1454 | 1431.1 | 1408.8 | 1387
x2 = 0.1016 | 1472 | 1448.7 | – | 1403.7 | 1382
x2 = 0.1557 | 1466.4 | 1443 | – | 1398 | 1376.2
x2 = 0.2035 | – | – | 1414.4 | 1392 | 1370.1
x2 = 0.3006 | 1447.8 | – | 1401.5 | 1379.1 | 1357.3
x2 = 0.3988 | 1432.7 | – | 1386 | 1363.4 | 1341.2
x2 = 0.5074 | 1411.3 | – | – | 1341.7 | 1319.4
x2 = 0.5993 | 1388.7 | 1364.7 | 1341.2 | 1318.2 | 1295.5
x2 = 0.6995 | 1356.5 | 1332 | 1308 | – | 1261.2
x2 = 0.8001 | 1312.5 | 1287.1 | 1262.1 | – | 1213.5
x2 = 0.8498 | 1285 | 1258.6 | 1232.8 | 1207.4 | 1182.5
x2 = 0.8995 | 1253.3 | 1225.3 | 1198 | 1171.2 | 1144.8
x2 = 0.9495 | – | 1186 | – | – | 1099.2
